Here are results for 2 substances from patent US20050250093A1, “Hepatitis c virus sub-genomic replicons” (priority 2002, published 2005).

Series [1] has as its system Huh-7 cells. The series can be described thus: Stable replication / G418 resistance after electroporation of replicon RNA into Huh-7 cells. It counts as cell-based, human. The note with it: replicon RNA prepared in vitro, G418 selection. The procedure: In the present invention, certain chimeric replicon constructs were generated from pHCVrep1b(BB7) with sequences substituted with either type 1aHCV H77 sequence or by HCV type 1b J4 strain sequence. […] The methods for constructing these replicons are described herein.
RNA transcribed from the above replicon DNA was electroporated into Huh-7 cells according to the procedures in the examples. G418 resistant cells were obtained by incubating the cells in G418-containing media. Once the cells were amplified, total cellular protein was separated on SDS-PAGE and probed by NS5A serum to assess whether HCV proteins were expressed. As predicted, all three replicon cell lines expressed NS5A as shown on figure. Genomic DNA and RNA were also isolated from each replicon cell lines. PCR reactions on genomic DNA were carried out to assess the possibility that the G418 resistance was due to expression of the phosphatransferase from integrated neo resistant gene into the Huh-7 cell genome. […] Therefore, the date indicate that it is unlikely that the resistance is due to integration of residue DNA in our RNA preparation into the genome of Huh-7 cells.
Five […]g of replicon RNA was electroporated into 5×10^6 cells of the hepatoma cell line, Huh-7. […] Huh-7 cells were pelleted, washed, counted and resuspended to a final concentration of 1×10^7 cells/ml in Opti-MEM media (Invitrogen). […]
For orientation: A replicon is a self-replicating genome or part of one, used to study replication in cells.

The test system of series [2] is Huh-7 cells. The series is described as follows: Analysis of replicon copy number by TaqMan. The series is classed as cell-based, human. The note with it: real-time PCR with primers and probes in the neo gene on total RNA from replicon cells. The procedure: Next, replicon RNA was quantified by TaqMan. Real-time PCR was conducted with primers and probes in the neo gene on total RNA isolated from the replicon cells and on standard neo containing DNA. Copy numbers of the replicon were calculated based on standard curve generated from known amount of in vitro transcribed RNA. J4 M/S contained about 147 copies/cell, BB7-F1 contained 57 copies/cell, HCV 1a replicon has 165 copies/cell, BB7/H77NS5B has 29 copies/cell. For a positive control, HCV BB7 replicon that has 1500 copies/cell while Huh-7 cells served as negative controls.
Cells were trypinized and counted to determine cell number. The total cellular RNA was isolated using RNeasy Mini Kit (Qiagen) following the manufacturer's protocol. The RNA was stored at −80° C. or assayed by TaqMan quantitative RT-PCR. For analysis by TaqMan PCR, a master mix was prepared using TaqMan EZ RT-PCR Kit (Applied Biosystems #403028), TaqMan PDAR Control Reagent Human Cyclophilin (Applied Biosystems #4310883E), custom primer Neo^R fwd CCG GCT ACC TGC CCA TTC [SEQ ID NO:28] […] Data was analyzed by leaving the baseline to default level on both layers, and set a threshold to an equal value for both dye layers. […] The copy number for each replicon sample was calculated by taking the sample's Ct value, minus the line intercept, divided by the slope of the line.

For series [3], the system named is type 1a replicon system. The series can be described thus: Susceptibility of the type 1a replicon system to interferon and antiviral agents. It counts as cell-based, HCV. The settings on record: type 1a replicon vs type 1b replicon system.

As to HCV 1a replicon, the “generation of stable cell lines / stable replication after transfection into Huh-7 cells” value in series [1] is “able to stably replicate and confer resistance to G418”. Moreover, in series [2], the replicon copy number amounted to 165 copies/cell. Turning to interferon, the “susceptibility compared with the type 1b replicon system” value in series [3] is “similar”.
